Measured values as given in article PMC6072256 (ACS Omega, 2018).

Biological target: chymotrypsin (Bos taurus, UniProt P00766)
Experiment: chymotrypsin inhibition assay
Type: biochemical
Conditions: protease inhibition test; statement of the abstract

streptopeptolin [compound 1]
inhibitory activity against chymotrypsin (in words): showed inhibitory activity
